The target in data set [1] is T1, 5-HT4 receptors in the rat esophagus (Rattus norvegicus, UniProt Q62758).
T1 construct: The remaining inner tube of smooth muscle was known as the TMM; tissue Charles River (animals); host or cells: rat esophagus tunica muscularis mucosae (TMM) smooth muscle, organ bath
As to the kind of experiment: TMM functional assay. As to conditions: 1 μM antagonist added to bath; carbachol-contracted rat TMM relaxed by 5-HT. From the text: More specifically, partial agonist activity can be measured according to the following procedures.
Male SD rats (Charles River) weighing 250-350 g were stunned and then killed by cervical dislocation. The esophagus was dissected from immediately proximal to the stomach (including piece of stomach to mark distal end) up to the level of the trachea and then placed in fresh Krebs' solution.
The outer skeletal muscle layer was removed in one go by peeling it away from the underlying smooth muscle layer using forceps (stomach to tracheal direction). The remaining inner tube of smooth muscle was known as the TMM. This was trimmed to 2 cm from the original ‘stomach-end’ and the rest discarded.
The TMMs were mounted as whole ‘open’ tubes in longitudinal orientation in 5 ml organ baths filled with warm (32° C.) aerated Krebs. Tissues were placed under an initial tension of 750 mg and allowed to equilibrate for 60 minutes. The tissues were re-tensioned twice at 15 minute intervals during the equilibration period. The pump flow rate was set to 2 ml/min during this time.
Following equilibration, the pump was switched off. The tissues were exposed to 1 μM carbachol and contracted and reached a steady contractile plateau within 15 minutes. Tissues were then subject to 1 μM 5-HT (this was to prime the tissues). The tissues relaxed in response to 5-HT fairly rapidly—within 1 minute. […]

T1 sequence (Q62758 whole entry): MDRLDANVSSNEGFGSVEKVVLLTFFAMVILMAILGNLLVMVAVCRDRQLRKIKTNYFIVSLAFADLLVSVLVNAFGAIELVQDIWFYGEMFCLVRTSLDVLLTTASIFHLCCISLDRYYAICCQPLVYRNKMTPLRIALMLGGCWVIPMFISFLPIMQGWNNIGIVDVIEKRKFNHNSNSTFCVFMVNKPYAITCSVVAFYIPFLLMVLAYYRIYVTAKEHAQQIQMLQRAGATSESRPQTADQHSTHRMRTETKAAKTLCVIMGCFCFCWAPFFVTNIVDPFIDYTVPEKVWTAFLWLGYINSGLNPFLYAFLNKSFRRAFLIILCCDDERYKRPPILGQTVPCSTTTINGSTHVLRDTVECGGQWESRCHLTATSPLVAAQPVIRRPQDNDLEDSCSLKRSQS

A word on the melting point: it is the temperature, or range, at which the solid turns liquid. As for `O=C(NCC1CCN(CC2(C(=O)O)CCC2)CC1)N1C(=O)C2(CCCC2)c2ccc(F)cc21`, the melting point turned out to be 150.3 °C.

For the molecule `O=C(NCC1CCN(CC2(C(=O)O)CCC2)CC1)N1C(=O)C2(CCCC2)c2ccccc21`, the melting point turned out to be 171 °C. For the molecule `O=C(NCC1CCN(CC2(C(=O)O)CCCC2)CC1)N1C(=O)C2(CCCC2)c2ccccc21`, the melting point amounted to 188.1 °C.

`O=C(NCC1CCN(CC2(C(=O)O)CCCCC2)CC1)N1C(=O)C2(CCCC2)c2ccccc21` yielded a melting point of 160.4 °C.

The molecule `O=C(NCC1CCN(CC2(C(=O)O)CCOCC2)CC1)N1C(=O)C2(CCCC2)c2ccccc21` had a melting point of 146.3 °C. Still for that read-out and setting: next, `O=C(NCC1CCN(CC2(C(=O)O)CC2)CC1)N1C(=O)C2(CCCC2)c2ccccc21`: 186.5 °C.

As for `O=C(NCC1CCN(CC2(C(=O)O)CCOCC2)CC1)N1C(=O)C2(CCCC2)c2ccc(F)cc21`, the melting point came out at 161.3 °C.

Regarding `CC1(C)C(=O)N(C(=O)NCC2CCN(CC3(C(=O)O)CCC3)CC2)c2cc(F)ccc21`, the melting point came to 193 °C. The same measure, in the same setting: next, `CC(C)(CN1CCC(F)(CNC(=O)N2C(=O)C(C)(C)c3ccc(F)cc32)CC1)C(=O)O`: 176 °C; `CC1(C)C(=O)N(C(=O)NCC2CCN(C(C)(C)C(=O)O)CC2)c2cc(F)ccc21`: 213 °C; `CC(C)(CN1CCC(CNC(=O)N2C(=O)C(C)(C)c3ccccc32)CC1)C(=O)O`: 164.5 °C.

Take `CC(C)(CN1CCC(F)(CNC(=O)N2C(=O)C(C)(C)c3ccccc32)CC1)C(=O)O`: the melting point amounted to 156 °C. Still for that read-out and setting: next, `CC(C)(CN1CCC(CNC(=O)N2C(=O)C(C)(C)c3ccc(F)cc32)CC1)C(=O)O`: 134 °C; `CC1(C)C(=O)N(C(=O)NCC2CCN(CC3(C(=O)O)CCC3)CC2)c2ccccc21`: 170.9 °C. `CC(C)(CN1CCC(CNC(=O)N2C(=O)C3(CCCC3)c3ccccc32)CC1)C(=O)O` displayed a melting point of 189.1 °C. For `O=C(OCCN1CCCCC1)c1c[nH]c2ccccc12` [SB 203,186, 1H-Indole-3-carboxylic acid, 2-(1-piperidinyl)ethyl ester], the “reversal of agonist-induced relaxation” value in data set [1] was “reversed 5-HT induced relaxation”.

Molecule `CC1(C)C(=O)N(C(=O)NCC2(O)CCN(CC3(C(=O)O)CCC3)CC2)c2cc(F)ccc21` showed a melting point of 159 °C.
